18 compounds from patent US11034658B2, “Pyridinyl pyrazoles as modulators of RORγT” (Janssen Pharmaceutica NV, priority 2018, dated 2021) can be followed below.

Assay [1] deals with human RORγt ligand binding domain (RORγt LBD) (Homo sapiens (Human), UniProt P51449). Description: RORγt ThermoFluor assay.
The target of assay [2] is full-length human RORγt (GAL4-DBD-RORγt fusion) in HEK293T cells (Homo sapiens (Human), UniProt P51449). Description: RORγt (full-length human) reporter assay, conditions A or B. It counts as cell-based. The settings on record: for IC50: HEK293T cells, read-out: RORγt (FL) Reporter Assay A or B, IC50; for inhibition at 3 µM / inhibition at 1 µM: HEK-293T, read-out: RORγt (FL) Reporter Assay A or B, % inhibition; for inhibition at 3 µM: 3 μM compound concentration (footnote *); for inhibition at 1 µM: 1 μM compound concentration (footnote ***). The method in brief:
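HEK293T cells expressing GAL4-DBD-RORγt fusion (96- or 384-well formats, DMEM/10% FBS) exposed to compound overnight (16–20 h). Firefly luciferase normalized to DMSO and saturating reference compound, then to Renilla; IC50 from dose curve, % inhibition versus DMSO.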

Each structure is given as a SMILES string.

Chain of human RORγt ligand binding domain (RORγt LBD) (P51449 other isoform, or with tags, fused parts or gaps): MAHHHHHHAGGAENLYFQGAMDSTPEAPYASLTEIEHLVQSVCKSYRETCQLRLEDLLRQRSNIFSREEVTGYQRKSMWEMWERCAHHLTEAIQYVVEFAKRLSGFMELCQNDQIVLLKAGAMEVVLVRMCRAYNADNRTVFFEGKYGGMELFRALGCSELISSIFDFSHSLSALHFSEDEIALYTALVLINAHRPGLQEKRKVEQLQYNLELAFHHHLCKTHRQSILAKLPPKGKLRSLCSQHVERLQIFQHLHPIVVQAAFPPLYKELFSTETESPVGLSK
Chain of full-length human RORγt (GAL4-DBD-RORγt fusion) in HEK293T cells (P51449 other isoform, or with tags, fused parts or gaps): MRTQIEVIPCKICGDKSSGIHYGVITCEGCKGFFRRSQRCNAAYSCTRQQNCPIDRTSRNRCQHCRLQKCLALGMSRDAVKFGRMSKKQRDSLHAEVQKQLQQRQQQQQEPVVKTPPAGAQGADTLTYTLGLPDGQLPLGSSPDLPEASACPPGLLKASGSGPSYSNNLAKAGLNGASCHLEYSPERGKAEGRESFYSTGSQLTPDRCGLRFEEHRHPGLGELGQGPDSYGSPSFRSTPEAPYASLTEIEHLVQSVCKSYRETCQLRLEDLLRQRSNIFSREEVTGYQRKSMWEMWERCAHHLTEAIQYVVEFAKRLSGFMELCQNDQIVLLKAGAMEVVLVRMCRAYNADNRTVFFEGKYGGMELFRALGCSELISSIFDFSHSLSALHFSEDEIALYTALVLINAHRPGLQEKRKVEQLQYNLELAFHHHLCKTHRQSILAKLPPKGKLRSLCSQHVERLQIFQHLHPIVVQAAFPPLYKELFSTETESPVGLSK

Consider `CCn1nc(C(=O)NC[C@]2(O)CC[C@@H](S(C)(=O)=O)CC2)c(C)c1-c1cnc(CC(C)(C)C(F)(F)F)cc1C(F)F` [Example 28, 5-(4-(Difluoromethyl)-6-(3,3,3-trifluoro-2,2-dimethylpropyl)pyridin-3-yl)-1-ethyl-N-(((1s,4s)-1-hydroxy-4-(methylsulfonyl)cyclohexyl)methyl)-4-methyl-1H-pyrazole-3-carboxamide], for which the Kd in assay [1] came out at 97 nM. Besides, in assay [2], the IC50 is 2 nM and the inhibition at 3 µM was found to be 76%.

For `Cn1nc(C(=O)NC[C@H]2CC[C@H](S(C)(=O)=O)CC2)c(Cl)c1-c1cnc(CC(C)(C)C(F)(F)F)cc1OC(F)F` [Example 30, 4-Chloro-5-(4-(difluoromethoxy)-6-(3,3,3-trifluoro-2,2-dimethylpropyl)pyridin-3-yl)-1-methyl-N-(((1r,4r)-4-(methylsulfonyl)cyclohexyl)methyl)-1H-pyrazole-3-carboxamide], the Kd in assay [1] stood at 10 nM. In assay [2], the IC50 amounted to 100 nM and the inhibition at 3 µM came out at 98%.

The compound `Cc1c(C(=O)NC[C@H]2CC[C@H](S(C)(=O)=O)CC2)nn(C)c1-c1cnc(CC(C)(C)C(F)(F)F)cc1OC(F)F` [Example 31] showed a Kd in assay [1] of 26 nM. In assay [2], the IC50 was 160 nM and the inhibition at 1 µM was 100%.

On to `CCn1nc(C(=O)NC[C@H]2CC[C@H](S(C)(=O)=O)CC2)c(Cl)c1-c1cnc(CCCC(F)(F)F)cc1OC(F)F` [Example 32, 4-Chloro-5-(4-(difluoromethoxy)-6-(4,4,4-trifluorobutyl)pyridin-3-yl)-1-ethyl-N-(((1r,4r)-4-(methylsulfonyl)cyclohexyl)methyl)-1H-pyrazole-3-carboxamide], for which the Kd in assay [1] was 18 nM. Moreover, in assay [2], the IC50 stood at 54 nM and the inhibition at 3 µM amounted to 129%.

In assay [1], `CCn1nc(C(=O)NC[C@]2(O)CC[C@@H](S(C)(=O)=O)CC2)c(Cl)c1-c1cnc(CCCC(F)(F)F)cc1OC(F)F` [Example 33, 4-Chloro-5-(4-(difluoromethoxy)-6-(4,4,4-trifluorobutyl)pyridin-3-yl)-1-ethyl-N-(((1s,4s)-1-hydroxy-4-(methylsulfonyl)cyclohexyl)methyl)-1H-pyrazole-3-carboxamide] had a Kd of 62 nM. Further, in assay [2], the IC50 stood at 1100 nM and the inhibition at 3 µM amounted to 66%.

Turning to `CCn1nc(C(=O)NC[C@H]2CC[C@H](S(C)(=O)=O)CC2)c(C)c1-c1cnc(CCCC(F)(F)F)cc1OC(F)F` [Example 34, 5-(4-(Difluoromethoxy)-6-(4,4,4-trifluorobutyl)pyridin-3-yl)-1-ethyl-4-methyl-N-(((1r,4r)-4-(methylsulfonyl)cyclohexyl)methyl)-1H-pyrazole-3-carboxamide], binding in assay [1] was characterised by a dissociation constant (Kd) of 34 nM. Also, in assay [2], the IC50 amounted to 58 nM and the inhibition at 1 µM was found to be 92%.

`CCn1nc(C(=O)NC[C@]2(O)CC[C@@H](S(C)(=O)=O)CC2)c(C)c1-c1cnc(CCCC(F)(F)F)cc1OC(F)F` [Example 35, 5-(4-(Difluoromethoxy)-6-(4,4,4-trifluorobutyl)pyridin-3-yl)-1-ethyl-N-(((1s,4s)-1-hydroxy-4-(methylsulfonyl)cyclohexyl)methyl)-4-methyl-1H-pyrazole-3-carboxamide] yielded a Kd in assay [1] of 100 nM. Further, in assay [2], the half-maximal inhibitory concentration (IC50) was 63 nM and the inhibition at 1 µM is 76%.

In assay [1], `CCn1nc(C(=O)NC[C@]2(O)CC[C@@H](S(C)(=O)=O)CC2)c(Cl)c1-c1cnc(OCC(C)(C)C(F)(F)F)cc1OC` [Example 36, 4-Chloro-1-ethyl-N-(((1s,4s)-1-hydroxy-4-(methylsulfonyl)cyclohexyl)methyl)-5-(4-methoxy-6-(3,3,3-trifluoro-2,2-dimethylpropoxy)pyridin-3-yl)-1H-pyrazole-3-carboxamide] had a Kd of 20 nM. Also, in assay [2], the IC50 was found to be 33 nM and the inhibition at 3 µM came to 104%.

In assay [1], `CCn1nc(C(=O)NC[C@]2(O)CC[C@@H](S(C)(=O)=O)CC2)c(Cl)c1-c1cnc(CC(C)(C)C(F)F)cc1OC(F)F` [Example 38, 4-Chloro-5-(6-(3,3-difluoro-2,2-dimethylpropyl)-4-(difluoromethoxy)pyridin-3-yl)-1-ethyl-N-(((1s,4s)-1-hydroxy-4-(methylsulfonyl)cyclohexyl)methyl)-1H-pyrazole-3-carboxamide] gave a Kd of 15 nM. For the same compound, in assay [2], the IC50 was 220 nM and the inhibition at 3 µM was determined as 88%.

`CCn1nc(C(=O)NC[C@H]2CC[C@H](S(C)(=O)=O)CC2)c(C)c1-c1cnc(CC(C)(C)C(F)F)cc1OC(F)F` [Example 41, 5-(6-(3,3-Difluoro-2,2-dimethylpropyl)-4-(difluoromethoxy)pyridin-3-yl)-1-ethyl-4-methyl-N-(((1r,4r)-4-(methylsulfonyl)cyclohexyl)methyl)-1H-pyrazole-3-carboxamide] returned a Kd in assay [1] of 6.9 nM. Besides, in assay [2], the IC50 turned out to be 45 nM and the inhibition at 3 µM worked out at 102%.

Turning to `CCn1nc(C(=O)NC[C@]2(O)CC[C@@H](S(C)(=O)=O)CC2)c(C)c1-c1cnc(CC(C)(C)C(F)F)cc1OC(F)F` [Example 42, 5-(6-(3,3-Difluoro-2,2-dimethylpropyl)-4-(difluoromethoxy)pyridin-3-yl)-1-ethyl-N-(((1s,4s)-1-hydroxy-4-(methylsulfonyl)cyclohexyl)methyl)-4-methyl-1H-pyrazole-3-carboxamide], in assay [1], the Kd is 35 nM. Moreover, in assay [2], the IC50 came out at 430 nM and the inhibition at 3 µM worked out at 95%.

For the compound `CCn1nc(C(=O)NC[C@H]2CC[C@H](S(C)(=O)=O)CC2)c(Cl)c1-c1ccc(CC(C)(C)C(F)(F)F)nc1OC(F)F` [Example 45, 4-Chloro-5-(2-(difluoromethoxy)-6-(3,3,3-trifluoro-2,2-dimethylpropyl)pyridin-3-yl)-1-ethyl-N-(((1r,4r)-4-(methylsulfonyl)cyclohexyl)methyl)-1H-pyrazole-3-carboxamide], in assay [1], the Kd was 0.35 nM. Further, in assay [2], the IC50 is 11 nM and the inhibition at 3 µM was 86%.

Consider `CCn1nc(C(=O)NC[C@]2(O)CC[C@@H](S(C)(=O)=O)CC2)c(Cl)c1-c1ccc(CC(C)(C)C(F)(F)F)nc1OC(F)F` [Example 46, 4-Chloro-5-(2-(difluoromethoxy)-6-(3,3,3-trifluoro-2,2-dimethylpropyl)pyridin-3-yl)-1-ethyl-N-(((1s,4s)-1-hydroxy-4-(methylsulfonyl)cyclohexyl)methyl)-1H-pyrazole-3-carboxamide], for which the Kd in assay [1] came to 0.66 nM. Moreover, in assay [2], the IC50 stood at 89 nM and the inhibition at 3 µM stood at 97%.

Consider `CCn1nc(C(=O)NC[C@H]2CC[C@H](S(C)(=O)=O)CC2)c(C)c1-c1ccc(CC(C)(C)C(F)(F)F)nc1OC(F)F` [Example 49, 5-(2-(Difluoromethoxy)-6-(3,3,3-trifluoro-2,2-dimethylpropyl)pyridin-3-yl)-1-ethyl-4-methyl-N-(((1r,4r)-4-(methylsulfonyl)cyclohexyl)methyl)-1H-pyrazole-3-carboxamide], for which the Kd in assay [1] is 0.28 nM. Besides, in assay [2], the IC50 was 6.4 nM and the inhibition at 3 µM came out at 106%.

For `CCn1nc(C(=O)NC[C@]2(O)CC[C@@H](S(C)(=O)=O)CC2)c(C)c1-c1ccc(CC(C)(C)C(F)(F)F)nc1OC(F)F` [Example 50, 5-(2-(Difluoromethoxy)-6-(3,3,3-trifluoro-2,2-dimethylpropyl)pyridin-3-yl)-1-ethyl-N-(((1s,4s)-1-hydroxy-4-(methylsulfonyl)cyclohexyl)methyl)-4-methyl-1H-pyrazole-3-carboxamide], binding in assay [1] was put at a Kd of 1.3 nM. Further, in assay [2], the IC50 turned out to be 20 nM and the inhibition at 1 µM stood at 100%.

In turn, `CCn1nc(C(=O)NC[C@H]2CC[C@H](S(C)(=O)=O)CC2)c(Cl)c1-c1ncc(CC(C)(C)C(F)(F)F)cc1OC(F)F` [Example 52, 4-Chloro-5-(3-(difluoromethoxy)-5-(3,3,3-trifluoro-2,2-dimethylpropyl)pyridin-2-yl)-1-ethyl-N-(((1r,4r)-4-(methylsulfonyl)cyclohexyl)methyl)-1H-pyrazole-3-carboxamide] gave a Kd in assay [1] of 4.7 nM. Also, in assay [2], the IC50 was 58 nM and the inhibition at 3 µM was 85%.

Consider `CCn1nc(C(=O)NC[C@]2(O)CC[C@@H](S(C)(=O)=O)CC2)c(Cl)c1-c1ncc(CC(C)(C)C(F)(F)F)cc1OC(F)F` [Example 53, 4-Chloro-5-(3-(difluoromethoxy)-5-(3,3,3-trifluoro-2,2-dimethylpropyl)pyridin-2-yl)-1-ethyl-N-(((1s,4s)-1-hydroxy-4-(methylsulfonyl)cyclohexyl)methyl)-1H-pyrazole-3-carboxamide], for which the Kd in assay [1] came to 18 nM. In addition, in assay [2], the IC50 turned out to be 250 nM and the inhibition at 3 µM stood at 83%.

Regarding `CCn1nc(C(=O)NC[C@H]2CC[C@H](S(C)(=O)=O)CC2)c(Cl)c1-c1cnc(CC(C)(C)C(F)(F)F)cc1C(C)(F)F` [Example 54, 4-Chloro-5-(4-(1,1-difluoroethyl)-6-(3,3,3-trifluoro-2,2-dimethylpropyl)pyridin-3-yl)-1-ethyl-N-(((1r,4r)-4-(methylsulfonyl)cyclohexyl)methyl)-1H-pyrazole-3-carboxamide], in assay [1], binding was characterised by a dissociation constant (Kd) of 13 nM. In assay [2], the IC50 stood at 240 nM and the inhibition at 3 µM is 42%.
